Four compounds from ChEMBL document CHEMBL1134501, “Structure-activity studies for a novel series of bicyclic substituted hexahydrobenz[e]isoindole alpha1A adrenoceptor antagonists as potential agents for the symptomatic treatment of benign prostatic hyperplasia” (J Med Chem, 2001) can be followed below.

Broadly, the Ki is the dissociation constant of the complex between target and ligand, obtained from inhibition or displacement. Read a high Ki as a looser hold on the target.

The target of assay [1] is T1, Alpha-1D adrenergic receptor (Rattus norvegicus, UniProt P23944).
T1 sequence (P23944 whole entry): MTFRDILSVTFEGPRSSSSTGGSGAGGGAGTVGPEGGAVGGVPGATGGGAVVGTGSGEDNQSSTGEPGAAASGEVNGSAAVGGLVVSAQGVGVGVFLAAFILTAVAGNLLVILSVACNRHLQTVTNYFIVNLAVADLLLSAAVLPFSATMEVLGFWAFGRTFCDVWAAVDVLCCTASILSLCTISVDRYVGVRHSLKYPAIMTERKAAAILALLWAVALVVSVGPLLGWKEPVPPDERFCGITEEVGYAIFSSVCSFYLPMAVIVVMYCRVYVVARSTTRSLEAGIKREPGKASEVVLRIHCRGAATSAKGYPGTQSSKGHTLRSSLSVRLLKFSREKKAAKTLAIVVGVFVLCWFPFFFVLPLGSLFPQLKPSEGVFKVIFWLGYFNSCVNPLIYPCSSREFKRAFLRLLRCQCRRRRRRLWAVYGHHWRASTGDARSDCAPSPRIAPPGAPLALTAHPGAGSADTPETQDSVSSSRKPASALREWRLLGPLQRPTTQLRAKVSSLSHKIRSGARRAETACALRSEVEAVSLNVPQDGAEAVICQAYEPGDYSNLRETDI
Put plainly: Binding affinity to rat alpha-1D adrenergic receptor expressed in LTK cells. The assay is classed as cell-based.

Assay [2] concerns the target T2, Alpha-1B adrenergic receptor (Rattus norvegicus, UniProt P15823).
T2 sequence (P15823 whole entry): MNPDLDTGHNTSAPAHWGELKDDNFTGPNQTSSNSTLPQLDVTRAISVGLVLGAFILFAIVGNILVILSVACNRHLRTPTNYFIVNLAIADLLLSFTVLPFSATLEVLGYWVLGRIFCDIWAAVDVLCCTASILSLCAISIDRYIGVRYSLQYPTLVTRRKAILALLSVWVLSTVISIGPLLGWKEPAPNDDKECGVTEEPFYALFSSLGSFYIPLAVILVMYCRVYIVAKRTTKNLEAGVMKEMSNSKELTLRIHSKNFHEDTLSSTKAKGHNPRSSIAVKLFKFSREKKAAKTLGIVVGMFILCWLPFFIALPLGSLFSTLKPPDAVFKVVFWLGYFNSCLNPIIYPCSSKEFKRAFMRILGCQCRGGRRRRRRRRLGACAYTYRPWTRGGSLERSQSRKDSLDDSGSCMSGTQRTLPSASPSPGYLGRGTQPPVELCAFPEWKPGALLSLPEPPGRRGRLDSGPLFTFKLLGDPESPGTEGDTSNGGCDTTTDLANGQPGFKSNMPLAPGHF
Nature of the assay: In vitro antagonistic activity against alpha-1B receptor in rat spleen. The assay is classed as functional, tissue-based. To be noted: read-out: pA2 (converted).

For assay [3], the system named is Canis familiaris. Put plainly: In vivo antagonist dissociation constant in intaraurethral pressure model in dogs. To be noted: Canis lupus familiaris, read-out: pA2 (converted).
The species named for assay [4] is Rattus norvegicus. Nature of the assay: Antagonistic activity in spontaneously hypertensive rat model. The assay is classed as functional.
The target of assay [5] is T3, Alpha-1A adrenergic receptor (Rattus norvegicus, UniProt P43140).
T3 sequence (P43140 whole entry): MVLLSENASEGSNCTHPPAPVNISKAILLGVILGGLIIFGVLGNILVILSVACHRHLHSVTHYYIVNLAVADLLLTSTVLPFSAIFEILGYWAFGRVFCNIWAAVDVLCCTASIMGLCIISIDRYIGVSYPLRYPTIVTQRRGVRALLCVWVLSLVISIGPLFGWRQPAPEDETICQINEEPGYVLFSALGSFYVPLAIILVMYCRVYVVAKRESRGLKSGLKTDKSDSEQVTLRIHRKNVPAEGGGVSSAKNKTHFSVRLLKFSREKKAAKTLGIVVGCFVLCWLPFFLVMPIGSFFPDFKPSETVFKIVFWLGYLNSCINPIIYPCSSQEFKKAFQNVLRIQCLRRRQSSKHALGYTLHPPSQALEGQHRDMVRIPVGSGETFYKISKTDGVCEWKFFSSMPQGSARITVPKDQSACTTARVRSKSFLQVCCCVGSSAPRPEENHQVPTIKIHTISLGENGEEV
Nature of the assay: Binding affinity to alpha-1A adrenergic receptor in rat submaxillary gland. The assay is classed as tissue-based.

Assay [6] addresses T3, Alpha-1A adrenergic receptor. Nature of the assay: In vitro antagonistic activity towards alpha-1A adrenergic receptor in rat vas deferens. The assay is classed as functional, tissue-based. Particulars: read-out: pA2 (converted).
The species named for assay [7] is Cricetulus griseus. Nature of the assay: Selectivity ratio (alpha-1B/alpha-1A) of the compound.
The nature of assay [8]: Selectivity ratio (antolog[pA2rat vas deferens/pA2 rat spleen]) of the compound. The assay is classed as functional.
Assay [9] has as its target Alpha-1A adrenergic receptor (Canis familiaris). Put plainly: In vitro antagonistic activity against alpha-1A receptor in dog prostate. To be noted: read-out: pA2 (converted).

As to `COc1cc2ncn(CCN3C[C@@H]4CCc5c(OC)cccc5[C@@H]4C3)c(=O)c2cc1OC`, the Ki in assay [1] was 7.79 nM. Moreover, the Kb in assay [2] was 85.1 nM; in assay [3], 5.01 nM. The compound also returned a pED50 in assay [4] of 5.32.

`COc1cccc2c1CC[C@H]1CN(CCn3c(=O)[nH]c4cc(C#N)ccc4c3=O)C[C@@H]21`: the Ki came out at 0.77 nM in assay [1] and 0.09 nM in assay [5]. Besides, the Kb was 18.6 nM in assay [2], 1.48 nM in [6] and 0.148 nM in assay [9]. The Ratio in assay [7] is 17.3; in assay [8], 12.59.

With `COc1cccc2c1CC[C@H]1CN(CCn3c(=O)[nH]c4c(OC)c(OC)ccc4c3=O)C[C@@H]21`, the results for the Ki in [1] and in assay [5] were 0.68 nM and 0.04 nM, respectively. For the same compound, the results for the Ratio in assay [7] and in assay [8] were 16.5 and 5.62, respectively.

For the compound `COc1cc2nc(N(C)CCCNC(=O)C3CCCO3)nc(N)c2cc1OC` (configuration not stated) [ALFUZOSIN], the Kb is 4.9 nM in assay [2] and 135 nM in assay [3].
